The numbers were not newly measured in patent US20020137787A1, “Prevention or treatment of complications related to non-insulin dependent diabetes mellitus or type 2 diabetes mellitus” (priority 2001, published 2002), which cites them from elsewhere.

SMILES strings stand for the structures. Like-named read-outs stand apart in the source and are kept apart here.

For data set [1] the following is noted: patients taking Clozapine.

Take `CN1CCN(C2=Nc3cc(Cl)ccc3Nc3ccccc32)CC1` [Clozapine]: the “effect on body weight” value in data set [1] is “increased weight”.

In the case of `CNCCC(Oc1ccc(C(F)(F)F)cc1)c1ccccc1` (stereo not drawn) [Fluoxetine], the “effect on body weight” value (overweight depressed patients) was “weight loss”. In addition, the “effects on blood glucose and lipid profiles” value (reported) is “positive effects”.
